From ChEMBL document CHEMBL3885881, “DrugMatrix”

Species: Rattus norvegicus
Assay type: toxicity, organism-based, Sprague-Dawley
Settings: in vivo, po, 24 h, route oral GAVAGE, time 1 day, […]; for ABSOLUTE BASOPHIL / ABSOLUTE EOSINOPHIL / ABSOLUTE LYMPHOCYTE / ABSOLUTE MONOCYTE / BASOPHIL / EOSINOPHIL / ERYTHROCYTE COUNT / HEMATOCRIT / HEMOGLOBIN / LEUKOCYTE COUNT / LYMPHOCYTE / MEAN CORPUSCULAR HEMOGLOBIN / MEAN CORPUSCULAR HEMOGLOBIN CONCENTRATION / MEAN CORPUSCULAR VOLUME / MONOCYTE / NEUTROPHIL / PLATELET COUNT: tissue Blood; for ALANINE AMINOTRANSFERASE / ALBUMIN / ALKALINE PHOSPHATASE / ASPARTATE AMINOTRANSFERASE / BLOOD UREA NITROGEN / CARBON DIOXIDE / CHLORIDE / CHOLESTEROL / CREATINE PHOSPHOKINASE / CREATININE / GLUCOSE / LACTATE DEHYDROGENASE / LIPASE / PHOSPHORUS / POTASSIUM / SODIUM / TOTAL BILIRUBIN / TOTAL PROTEIN / URIC ACID: tissue Plasma
[1] = 0 mg/kg, vehicle control, dose level Control

Description: DrugMatrix - Regimen: Single

With Clc1ccc(Cl)cc1 [1,4-DICHLOROBENZENE] the ABSOLUTE BASOPHIL [1] was 46.7 cells/µL, the ABSOLUTE EOSINOPHIL [1] was 130 cells/µL and the ABSOLUTE LYMPHOCYTE [1] was 8720 cells/µL. The ABSOLUTE MONOCYTE [1] was 140 cells/µL, the BASOPHIL [1] was 0.43% and the EOSINOPHIL [1] was 1.33%. The “ERYTHROCYTE COUNT” value [1] was 6.45 x10E6/uL, the HEMATOCRIT [1] was 42.2% and the HEMOGLOBIN [1] was 13.33 G/DL. For the same compound, the “LEUKOCYTE COUNT” value [1] was 10.59 x10E3/uL, the LYMPHOCYTE [1] was 82.13% and the “MEAN CORPUSCULAR HEMOGLOBIN” value [1] was 20.67 pg. The “MEAN CORPUSCULAR HEMOGLOBIN CONCENTRATION” value [1] was 31.6 G/DL, the “MEAN CORPUSCULAR VOLUME” value [1] was 65.4 fL and the MONOCYTE [1] was 1.37%. For the same compound, the NEUTROPHIL [1] was 14.3%, the “PLATELET COUNT” value [1] was 1048.67 x10E3/uL and the “ALANINE AMINOTRANSFERASE” value [1] was 44 u/L. The ALBUMIN [1] was 3.93 G/DL, the “ALKALINE PHOSPHATASE” value [1] was 551.33 u/L and the “ASPARTATE AMINOTRANSFERASE” value [1] was 97 u/L. The “BLOOD UREA NITROGEN” value [1] was 13.5 mg/dL, the “CARBON DIOXIDE” value [1] was 37.33 mmol/L and the CHLORIDE [1] was 102.33 MEQ/L. For the same compound, the CHOLESTEROL [1] was 83 mg/dL, the “CREATINE PHOSPHOKINASE” value [1] was 365.33 u/L and the CREATININE [1] was 0.4 mg/dL. For the same compound, the GLUCOSE [1] was 189 mg/dL, the “LACTATE DEHYDROGENASE” value [1] was 170.33 u/L and the LIPASE [1] was 10.67 u/L. The PHOSPHORUS [1] was 11.53 mg/dL, the POTASSIUM [1] was 5.63 MEQ/L and the SODIUM [1] was 144.33 MEQ/L. The “TOTAL BILIRUBIN” value [1] was 0.4 mg/dL, the “TOTAL PROTEIN” value [1] was 6.27 G/DL and the “URIC ACID” value [1] was 0.87 mg/dL. It also gave an ABSOLUTE BASOPHIL (900 mg/kg, dose level High) of 10 cells/µL, an ABSOLUTE EOSINOPHIL (900 mg/kg, dose level High) of 23.3 cells/µL and an ABSOLUTE LYMPHOCYTE (900 mg/kg, dose level High) of 4230 cells/µL. For the same compound, the ABSOLUTE MONOCYTE (900 mg/kg, dose level High) was 80 cells/µL, the BASOPHIL (900 mg/kg, dose level High) was 0.2% and the EOSINOPHIL (900 mg/kg, dose level High) was 0.5%. The “ERYTHROCYTE COUNT” value (900 mg/kg, dose level High) was 6.97 x10E6/uL, the HEMATOCRIT (900 mg/kg, dose level High) was 46.93% and the HEMOGLOBIN (900 mg/kg, dose level High) was 15 G/DL. The “LEUKOCYTE COUNT” value (900 mg/kg, dose level High) was 5.04 x10E3/uL, the LYMPHOCYTE (900 mg/kg, dose level High) was 83.5% and the “MEAN CORPUSCULAR HEMOGLOBIN” value (900 mg/kg, dose level High) was 21.5 pg. For the same compound, the “MEAN CORPUSCULAR HEMOGLOBIN CONCENTRATION” value (900 mg/kg, dose level High) was 31.97 G/DL, the “MEAN CORPUSCULAR VOLUME” value (900 mg/kg, dose level High) was 67.33 fL and the MONOCYTE (900 mg/kg, dose level High) was 1.67%. For the same compound, the NEUTROPHIL (900 mg/kg, dose level High) was 13.93%, the “PLATELET COUNT” value (900 mg/kg, dose level High) was 1227 x10E3/uL and the “ALANINE AMINOTRANSFERASE” value (900 mg/kg, dose level High) was 45.33 u/L. For the same compound, the ALBUMIN (900 mg/kg, dose level High) was 3.87 G/DL, the “ALKALINE PHOSPHATASE” value (900 mg/kg, dose level High) was 421.33 u/L and the “ASPARTATE AMINOTRANSFERASE” value (900 mg/kg, dose level High) was 99.33 u/L. The “BLOOD UREA NITROGEN” value (900 mg/kg, dose level High) was 12.67 mg/dL, the “CARBON DIOXIDE” value (900 mg/kg, dose level High) was 34.67 mmol/L and the CHLORIDE (900 mg/kg, dose level High) was 103 MEQ/L. For the same compound, the CHOLESTEROL (900 mg/kg, dose level High) was 65.67 mg/dL, the “CREATINE PHOSPHOKINASE” value (900 mg/kg, dose level High) was 827.67 u/L and the CREATININE (900 mg/kg, dose level High) was 0.5 mg/dL. The GLUCOSE (900 mg/kg, dose level High) was 188.67 mg/dL, the “LACTATE DEHYDROGENASE” value (900 mg/kg, dose level High) was 235.33 u/L and the LIPASE (900 mg/kg, dose level High) was 15.67 u/L. It also gave a PHOSPHORUS (900 mg/kg, dose level High) of 13.87 mg/dL, a POTASSIUM (900 mg/kg, dose level High) of 6 MEQ/L and an SODIUM (900 mg/kg, dose level High) of 142.67 MEQ/L. For the same compound, the “TOTAL BILIRUBIN” value (900 mg/kg, dose level High) was 0.8 mg/dL, the “TOTAL PROTEIN” value (900 mg/kg, dose level High) was 6.33 G/DL and the “URIC ACID” value (900 mg/kg, dose level High) was 0.7 mg/dL.
